Measurements published in ChEMBL document CHEMBL1777687, “Structure stability/activity relationships of sulfone stabilized N,N-dichloroamines” (Bioorg Med Chem Lett, 2011).
Converted amounts (≈) assume the structure as drawn.

Columns and labels:
Escherichia coli = assay: Bactericidal activity against Escherichia coli ATCC 25922 after 1 hr by CLSI M26-A method; type: functional; conditions: ATCC 25922, 1 h
Staphylococcus aureus = assay: Bactericidal activity against Staphylococcus aureus ATCC 29213 after 1 hr by CLSI M26-A method; type: functional; conditions: ATCC 29213, 1 h
Candida albicans = assay: Fungicidal activity against Candida albicans ATCC 10231 after 1 hr by CLSI M26-A method; type: functional; conditions: ATCC 10231, 1 h
[1] = Chemical stability of the compound assessed as half life in acetate buffer at pH 4; type: physicochemical
[2] = Chemical stability of the compound assessed as half life in phosphate buffer at pH 7; type: physicochemical
[3] = Chemical stability of the compound assessed as half life in 0.6% borate buffer at pH 7; type: physicochemical

Row | SMILES | MBC (Escherichia coli) [µg/mL] | MBC (Staphylococcus aureus) [µg/mL] | MFC (Candida albicans) [µg/mL] | half-life [1] [days] | half-life [2] [days] | half-life [3] [days]
1 | CC(C)(CS(=O)(=O)CCS(=O)(=O)O)N(Cl)Cl | 4 (≈ 12.7 µM) | 8 (≈ 25.5 µM) | 64 (≈ 204 µM) | > 93 | 1 | 
2 | CC(C)(CCC[N+](C)(C)C)N(Cl)Cl.[Cl-] | 8 | 2 | 256 | 80 | 56 | 
3 | CC(C)(CCS(=O)(=O)CC[N+](C)(C)C)N(Cl)Cl.[Cl-] | 8 | 2 | 32 | 6 |  | 
4 | CC(C)(CCS(=O)(=O)CCC[N+](C)(C)C)N(Cl)Cl.[Cl-] | 8 | 2 | 32 | > 160 |  | 70
5 | CC(C)(CCS(=O)(=O)CCS(=O)(=O)O)N(Cl)Cl | 8 (≈ 24.4 µM) | 2 (≈ 6.09 µM) | 16 (≈ 48.7 µM) | > 342 | > 342 | 
6 | CC(C)(CCS(=O)(=O)CCCCCCCC[N+](C)(C)C)N(Cl)Cl.[Cl-] | 8 | 8 | 32 | 127 | 74 | 
7 | CC(C)(CCCS(=O)(=O)CCS(=O)(=O)O)N(Cl)Cl | 8 (≈ 23.4 µM) | 2 (≈ 5.84 µM) | 128 (≈ 374 µM) | 45 |  | 45
8 | CC(C)(CCS(=O)(=O)CCCS(=O)(=O)O)N(Cl)Cl | 2 (≈ 5.84 µM) | 2 (≈ 5.84 µM) | 1020 (≈ 2990 µM) | > 112 | 85 | 
9 | CC(C)(CS(=O)(=O)[O-])N(Cl)Cl.[Na+] | 2 | 2 | 32 | > 730 | > 300 | 
10 | CC(C)(C[N+](C)(C)C)N(Cl)Cl.[Cl-] | 16 | 8 | 128 | > 325 | > 396 | 
11 | CC(C)(CCS(=O)(=O)CCCCCCCCS(=O)(=O)O)N(Cl)Cl | 2 (≈ 4.85 µM) | 4 (≈ 9.7 µM) | 8 (≈ 19.4 µM) | 182 |  | 70
12 | CC(C)(CC[N+](C)(C)C)N(Cl)Cl.[Cl-] | 2 | 2 | 64 | > 281 | > 210 | 
13 | CC(C)(CCS(=O)(=O)CCS(=O)(=O)CCS(=O)(=O)O)N(Cl)Cl | 2 (≈ 4.76 µM) | 4 (≈ 9.52 µM) | 32 (≈ 76.1 µM) | > 73 |  | 14
